Experimental data: patent US20170252289A1, “Hydroponic Tiliacora Triandra and Use Thereof” (Avon Products, Inc., priority 2016, published 2017)

Columns and labels:
[1] = test system: Human 3D skin EFT400FT tissues; test: Stimulation of HA production in human 3D skin tissues (hyaluronic acid test kit on conditioned medium); type: cell-based; conditions: 30 μl on apical surface, 8 hours per day for 3 days
Procedure: Method: Human 3D skin EFT400FT (MatTek, MA, USA) tissues were cultured following manufacture's instruction. Tiliacora triandra extract (extracted from hydroponically grown plant using 20/80 (v/v) water/ethanol) was added directly to the culture medium from a stock solution of 10% (w/w) extract in water in an amount adequate to achieve a final concentration of 0.2% (w/w) in the culture medium. The culture medium (EFT-400-MM) with and without Tiliacora triandra extract was collected 24 hours after dosing and fresh medium with and without Tiliacora triandra extract was added. Conditioned media from 3-day collection were pooled and assayed for the levels of HA.
HA production was measured using hyaluronic acid test kit (Corgenix, Inc. CO, USA). […] Add 100 μl Stopping Solution to stop the enzyme reaction and read the O.D. of each well at 450 nm. The amount of HA in the conditioned medium was calculated from this standard curve. […]
The same procedure of Example 4 was repeated using the skincare active glycolic acid, alone or in combination with hydroponic Tiliacora triandra extract, to investigate possible synergies between hydroponic Tiliacora triandra extract and glycolic acid. […] Glycolic acid was formulated into the base formula provided below in Table 3 in an amount calculated to provide a 0.5% (w/w) concentration of glycolic acid in the emulsion. […]

[2] = test system: HAS2 gene; test: Hyaluronic acid synthase (HAS) gene expression by qPCR in treated 3D skin tissue, HAS2; type: cell-based, Human; conditions: treated 3D skin EFT400FT tissue, 18S house keeping gene
Procedure: (§1) Total RNA was isolated from each treated 3D skin EFT400FT tissue using Trizol reagent (Thermo Fisher Scientific, MA). 1 μg of total RNA was used to generate cDNA using Supercript III first strand synthesis kit (Thermo Fisher Scientific, MA). Reverse transcriptase, Buffer, dNTP, Random primer, and RNase Inhibitor were diluted with the RNA according to the protocol from the manufacturer. 25 ng cDNA was used in 20 μl q-PCR reactions. Briefly, 10 μl of TaqMan Advanced Master Mix (Thermo Fisher Scientific, MA), 4 μl of H2O, 5 μl of cDNA, and 1 μl of either HAS primer (HAS2 Hs00193435_m1 and HAS3 Hs00193436_m1, Applied Biosystems) or 18S (Hs99999901_s1, Applied Biosystems) as a house keeping gene were mixed in a 96 well plate. The condition of qPCR was an incubation step of 95° C. for 20 seconds followed by 40 cycles of 95° C. for 3 seconds and 60° C. for 30 seconds. CT and RQ values were obtained from the software of applied Biosystems 7500 Fast Real Time PCR system. The results are shown below in Table 6, as percentage change of expression of hyaluronan synthase genes over control.

[3] = test system: HAS3 gene; test: Hyaluronic acid synthase (HAS) gene expression by qPCR in treated 3D skin tissue, HAS3; type: cell-based, Human; conditions: treated 3D skin EFT400FT tissue, 18S house keeping gene
Procedure: as §1

Row | Compound | % change in HA level over the control ([1]; Example 5, 0.5% (w/w) glycolic acid emulsion) [%] | HAS2 gene % change of expression over control [2] | HAS3 gene % change of expression over control [3] [%] | % change in HA level over the control ([1]; Example 6, 5% (w/w) niacinamide emulsion) [%]
1 | O=C(O)CO [Glycolic acid, glycolic acid] | 25.21 | No effect | 101 | 
2 | NC(=O)c1cccnc1 [Niacinamide, niacinamide] |  | No effect | 106 | 119.54
